Data reported in patent US20230067910A1, “NOVEL COMPOUNDS FOR THE DIAGNOSIS, TREATMENT AND PREVENTION OF DISEASES ASSOCIATED WITH THE AGGREGATION OF ALPHA-SYNUCLEIN” (MODAG GMBH, priority 2019, published 2023).
Read-outs that look alike come from different tables or passages of the source.

Tests used:
[1] = target: T1, aggregated alpha-synuclein (Homo sapiens, UniProt P37840); experiment: Saturation binding assay, protocol 2a, alpha-synuclein fibrils; details: for Selectivity versus Abeta and tau46 fibrils: saturation binding to alpha-synuclein vs Abeta and tau46 fibrils
T1 construct: made in house; host or cells: E. coli
Procedure: Alpha-synuclein and tau46 were purified from E. coli according to established protocols (Nuscher B, et al., J. Biol. Chem., 2004; 279(21):21966-75), Aβ1-42 was obtained from rPeptide, Watkinsville, Ga., USA. Fibrils were prepared by aggregation of recombinant protein via constant agitation. In detail, 70 μM of alpha-synuclein mixed with 100 mM NaCl in 50 mM Tris, pH 7.0+0.02% NaN3 were incubated at 1,400 rpm, 37° C. for 96 h. 10 μM of tau46 were incubated with 0.03 mg/ml heparin in 50 mM Tris, pH=7.0 at 1,000 rpm, 37° C. for 72 h. Aβ1-42 was solved in 20 mM NaPi, pH=8.0+0.2 mM EDTA+0.02% NaN3 (Deeg A A, et al., Biochim. Biophys. Acta, 2015; 1850(9): 1884-90; Goedert M, et al. Nature, 1996; 383(6600): 550-3).
Sonicated αSYN (0.04 μM) or tau46 (0.4 μM) or Aβ1-42 (6 μM) fibrils diluted in PBS were incubated with decreasing concentrations of [^3H]-labeled compound (48 nM or 24 nM-[…]) in 50 mM Tris-base, 10% ethanol, 0.05% Tween20, pH 7.4. To determine non-specific binding, the respective unlabeled compound (400 nM) was added to a duplicate set of binding reactions.
Assay plates were incubated under agitation at 37° C. for 2 h, covered by plastic foil (Resealable tape, PerkinElmer, Waltham, Mass., USA). Prior to harvesting, a filter (Printed filtermat B, PerkinElmer, Waltham, Mass., USA) was incubated with 5 mg/mL polyethylenimine (PEI, Poly(ethyleneimine) solution, Sigma Aldrich Chemie GmbH, Taufkirchen, Germany) at 4° C. for 30 min. After incubation, bound and free ligands were separated by vacuum filtration using a harvester (Filtermate harvester, PerkinElmer, Waltham, Mass., USA). The filter was washed three times with buffer cooled to 4° C. and subsequently dried in the microwave oven for 2 min at medium power. Melt-on scintillator sheets (MeltiLex™ B/HS, PerkinElmer, Waltham, Mass., USA) were molten into the filter using a heating plate set to 120° C. After solidifying at room temperature, the filter was sealed in a plastic bag (Sample bag for MicroBeta®, PerkinElmer, Waltham, Mass., USA). Accumulation of tritium was counted in a liquid scintillation counter (Wallac MicroBeta® TriLux, 1450 LSC & Luminescence Counter, PerkinElmer, Waltham, Mass., USA) immediately. Radioactivity was plotted against the increasing tritium-labeled compound or cold compound concentrations. Data points were fitted using nonlinear regression analysis in GraphPad Prism (GraphPad Software, Inc., Version 7.03, La Jolla, Calif., USA).
The fibril-binding saturation assay provides KD values. This assay is performed with directly radioactively labeled compounds (e.g. ^3H labeling). The saturation binding assays were performed using as target structures fibrillar aggregates produced from recombinant human alpha-synuclein, Aβ1-42, and tau46, respectively.

[2] = system: H4 cells overexpressing alpha-synuclein hemi-Venus fusion constructs (V1S+SV2); experiment: Cellular model of aggregated alpha-synuclein-dependent toxicity, V1S+SV2 H4 cells; format: cell-based; details: 10 μM compound, 100 μM FeCl3, 0.75% DMSO, 48 h; for inhibition at 10 µM: read-out: Change in fraction of condensed nuclei (rel. to DMSO control) [%]
Procedure: (§1) To identify potential therapeutically useful effects, compounds were tested in two cellular models of aggregated alpha-synuclein-dependent toxicity in H4 cells. These cellular models allow for the inducible overexpression of alpha-synuclein hemi-Venus fusion constructs (V1S+SV2) or full-length alpha-synuclein (the model is described in detail in: Bartels M, Weckbecker D, Kuhn P H, Ryazanov S, Leonov A, Griesinger C, Lichtenthaler S F, Bötzel K, Giese A: Iron-mediated aggregation and toxicity in a novel neuronal cell culture model with inducible alpha-synuclein expression, Sci. Rep. 2019 Jun. 24; 9(1):9100). Moreover, addition of DMSO and FeCl3 promotes the aggregation of alpha-synuclein which is associated with an increase in cytotoxicity. The cell culture assay uses these effects by determining the change in the number of cells and the change in the percentage of condensed nuclei, which is indicative of apoptosis, in order to obtain information on which compounds show the most promising effects and thus might be therapeutically useful.
(§2) In these experiments, cells were incubated with 100 μM FeCl3 and 0.75% DMSO in the presence of 10 μM anle138c as a positive control, compounds 1 to 19 (10 μM), or DMSO as a negative control. After 48 h, the cells were imaged with an OPERA high-throughput imaging system and analyzed using Acapella software (Perkin Elmer). […] A reduction in the fraction of condensed nuclei (in the absence of a strong reduction in cell number) is indicative of a beneficial therapeutic effect.

[3] = system: H4 cells overexpressing full-length alpha-synuclein; experiment: Cellular model of aggregated alpha-synuclein-dependent toxicity, full-length alpha-synuclein H4 cells; format: cell-based; details: 10 μM compound, 100 μM FeCl3, 0.75% DMSO, 48 h; for inhibition at 10 µM: read-out: Change in fraction of condensed nuclei (rel. to DMSO control) [%]
Procedure: as §1, §2

[4] = fibril-binding saturation assay, summary statement, read-out: KD values, alpha-synuclein fibrils
[5] = saturation assay protocol 2a, [3H]-labeled compound, read-out: KD [nM] for aggregated alpha-synuclein

Kd [1, 4] [nM]	Kd [1, 5] [nM]	Selectivity versus Abeta and tau46 fibrils [1]	SMILES	Change in cell number (rel. to DMSO control) [%] [2] [%]	inhibition at 10 µM [2] [%]	Change in cell number (rel. to DMSO control) [%] [3] [%]	inhibition at 10 µM [3] [%]
< 10	< 2	good to excellent selectivity	CN(C)c1ccc(-c2cc(-c3ccnc(Br)c3)[nH]n2)cc1 [Compound 1, 4-[3-(4-dimethylamino-phenyl)-1H-pyrazol-5-yl]-2-bromopyridine]	−21.2	11.7	−27.3	65.4
< 10	< 1	good to excellent selectivity	CNc1ccc(-c2cc(-c3ccnc(Br)c3)[nH]n2)cc1 [Compound 2, 4-[5-(2-bromopyridin-4-yl)-1H-pyrazol-3-yl]-N-methylaniline]	−25.8	49.4	−44.2	79
< 10	7	–	Fc1cc(-c2cc(-c3ccc4c(c3)OCO4)n[nH]2)ccn1 [Compound 12, 4-[3-(1,3-benzodioxol-5-yl)-1H-pyrazol-5-yl]-2-fluoropyridine]	−22.2	-24.9	−9.8	-28.4
